Data from patent US20070287699A1, “ANTIVIRAL AGENTS” (ViroBay, Inc., priority 2006, published 2007).

test system: HCV replicon RNA replication in human Huh7 hepatoma cells; test: HCV replicon assay (activity levels from either or both of HCV replicon assay 1, Huh7/Clone A RT-qPCR, and assay 2, Huh7 ET luc-ubi-neo/ET); format: cell-based, Hepatitis C virus (HCV); conditions: Hepatitis C virus, Huh-7, either or both HCV replicon assays: Huh7/Clone A, 48 hours, 72 hours, Luc activity or RT-PCR, read-out: inhibit HCV replication at IC50 levels or estimated IC50 levels
Description: The HCV replicon assay is a cell-culture system that mimics in vivo HCV replication and provides a system to study HCV replication in vitro. It was created by transfecting cloned viral RNA derived from a consensus HCV genomic sequence into human Huh7 hepatoma cells that are semi-permissive for viral RNA production (Lohmann V., Korner F., Koch J.-O., Herian U., Theilmann L. and Bartenschlager R. (1999). Replication of subgenomic Hepatitis C virus RNAs in a hepatoma cell line. Science 285, 110-113 and Blight K. J., Kolykhalov A. A. and Rice C. M. (2000). Efficient initiation of HCV RNA Replication in cell culture. Science 290, […]). These transfected cell lines contain a subgenomic HCV RNA genome that includes (1) the HCV 5′NTR fused to 12 amino acids of the capsid coding region, (2) the neomycin phosphotransferase gene (Neo) as a selectable marker, (3) the internal ribosome entry site (IRES) from encephalomyocarditis virus (EMCV) that directs translation of HCV non-structural proteins (variously NS2 or NS3 to NS5B), and (4) the 3′ NTR. Replicon-containing cells autonomously and persistently replicate HCV RNA that can be measured quantitatively by real-time qPCR. Therefore, the replicon system facilitates quantitative assessment of anti-viral activity by monitoring changes in HCV RNA replication in a cell-based assay.
HCV replicon-containing cells (Huh7/Clone A) were routinely maintained in Clone A growth medium (DMEM medium [Invitrogen], supplemented with 10% Fetal Bovine Serum, 1% Non Essential Amino Acids and 1 g/L G418). Test compounds were dissolved in dimethyl sulfoxide (DMSO) to make 200× stock solutions for all doses prior to treatment.
For the HCV replicon assay, Huh7/Clone A cells were trypsinized from culture flasks, seeded in 1 ml of Clone A growth medium without G418 at 4×10^4 cells per well in 24-well plates and incubated at 37° C. in a humidified CO2 (5%) incubator overnight. Following overnight incubation, compound solutions were added into wells in the same volume (5 μl of 200× compound stock per well) to give a final DMSO concentration of 0.5%. Three wells on each plate supplemented with 5 μl of DMSO served as untreated controls. For IC50 determinations, compounds were tested at 7 serial dilutions in triplicates from the starting stock solutions. The plates were incubated at 37° C. for 48 hours. After incubation, cells were harvested, transferred to 96-well plates, and subjected to total RNA extraction using the RNA Isolation Kit (RNeasy 96, Qiagen) according to the protocol described by the manufacture's RNeasy 96 Handbook (Qiagen).
Total RNA eluted in 130 μl of RNase-free dH2O was quantitated by the RiboGreen Assay according to the supplier's protocol (Molecular Probe). Briefly, 5 μl of RNA samples were aliquoted in duplicate to a 96-well black microplate and a 96-well TaqMan Optical plate. RNA samples in the black microplate were mixed with 95 μl of diluted RiboGreen:reagent (1:250 dilution in TE buffer) and sample fluorescence was measured using a fluorescence microplate reader at standard fluorescein wavelengths (excitation ˜480 nm, emission ˜520 nm). Ribosomal RNA (Molecular Probe) was used as standard.
TaqMan quantitative PCR (RT-qPCR) was used to quantitate the amount of HCV replicon RNA in each sample. The RT-qPCR reactions were performed in 25 μl on an ABI PRISM 7900 HT Sequence Detection System (Applied Biosystems). The reaction mixture contained 5 μl of total RNA (10-100 ng), 1× TaqMan Buffer A (Applied Biosystems), 5.5 mM MgCl2, 1.2 mM dNTP mix, 0.625 U of AmpliTaq Gold (Applied Biosystems), 5 U of MMLV reverse transcriptase (Promega), 5 U of rRNasin (Promega), 300 nM each of the forward and reverse primers, and 100 nM TaqMan MGB probe. Primers and probe were designed to hybridize to a portion of the neomycin resistance gene (neo) in the replicon and the sequences are as follows: forward primer 5′-GGCTACCTGCCCATTCGA-3′; reverse primer 5′-CCGGCTTCCATCCGAGTAC-3′; MGB probe 5′-CCACCAAGCGAAACA-3′. […]

Structure (SMILES)	IC50
COc1cc2c(=O)c(-c3noc(Cc4ccccc4)n3)cn(Cc3ccc(Cl)cc3)c2cc1OC [Compound 1, 3-(5-Benzyl-[1,2,4]oxadiazol-3-yl)-1-(4-chloro-benzyl)-6,7-dimethoxy-1H-quinolin-4-one]	> 10 µM
COc1cc2c(=O)c(-c3noc(C4(c5ccccc5)CC4)n3)cn(Cc3ccc(Cl)cc3)c2cc1OC [Compound 2, 1-(4-chloro-benzyl)-6,7-dimethoxy-3-[5-(1-phenyl-cyclopropyl)-[1,2,4]oxadiazol-3-yl]-1H-quinolin-4-one]	> 10 µM
COc1cc2c(=O)c(-c3noc(Cc4ccccn4)n3)cn(Cc3ccc(Cl)cc3)c2cc1OC [Compound 3, 1-(4-chloro-benzyl)-6,7-dimethoxy-3-(5-pyridin-2-ylmethyl-[1,2,4]oxadiazol-3-yl)-1H-quinolin-4-one]	> 10 µM
COc1cc2c(=O)c(-c3noc(Cc4ccc(C)cc4)n3)cn(Cc3ccc(Cl)cc3)c2cc1OC [Compound 4, 1-(4-chloro-benzyl)-6,7-dimethoxy-3-[5-(4-methyl-benzyl)-[1,2,4]oxadiazol-3-yl]-1H-quinolin-4-one]	> 10 µM
COc1cc2c(=O)c(-c3noc(CC4CCCCC4)n3)cn(Cc3ccc(Cl)cc3)c2cc1OC [Compound 5, 1-(4-chloro-benzyl)-3-(5-cyclohexylmethyl-[1,2,4]oxadiazol-3-yl)-6,7-dimethoxy-1H-quinolin-4-one]	> 10 µM
COc1cc2c(=O)c(-c3noc(Cc4ccsc4)n3)cn(Cc3ccc(Cl)cc3)c2cc1OC [Compound 6, 1-(4-chloro-benzyl)-6,7-dimethoxy-3-(5-thiophen-3-ylmethyl-[1,2,4]oxadiazol-3-yl)-1H-quinolin-4-one]	< 10 µM
COc1cc2c(=O)c(-c3noc(CC4CCCC4)n3)cn(Cc3ccc(Cl)cc3)c2cc1OC [Compound 7, 1-(4-chloro-benzyl)-3-(5-cyclopentylmethyl-[1,2,4]oxadiazol-3-yl)-6,7-dimethoxy-1H-quinolin-4-one]	> 10 µM
CN1CCN(c2cc3c(cc2F)c(=O)c(-c2noc(Cc4ccccc4)n2)cn3Cc2ccc(Cl)cc2)CC1 [Compound 8, 3-(5-benzyl-[1,2,4]oxadiazol-3-yl)-1-(4-chloro-benzyl)-6-fluoro-7-(4-methyl-piperazin-1-yl)-1H-quinolin-4-one]	< 2 µM
CN1CCN(c2cc3c(cc2F)c(=O)c(-c2noc(Cc4ccccc4)n2)cn3CC2CCCCC2)CC1 [Compound 9, 3-(5-benzyl-[1,2,4]oxadiazol-3-yl)-1-cyclohexylmethyl-6-fluoro-7-(4-methyl-piperazin-1-yl)-1H-quinolin-4-one]	< 2 µM
COc1ccc2c(c1)c(=O)c(-c1noc(Cc3ccccc3)n1)cn2CC1CCCCC1 [Compound 10, 3-(5-benzyl-[1,2,4]oxadiazol-3-yl)-1-cyclohexylmethyl-6-methoxy-1H-quinolin-4-one]	> 10 µM
COc1ccc2c(c1)c(=O)c(-c1noc(Cc3ccccc3)n1)cn2Cc1ccc(Cl)cc1 [Compound 11, 3-(5-benzyl-[1,2,4]oxadiazol-3-yl)-1-(4-chloro-benzyl)-6-methoxy-1H-quinolin-4-one]	> 10 µM
O=c1c(-c2noc(Cc3ccccc3)n2)cn(Cc2ccc(Cl)cc2)c2ccc(O)cc12 [Compound 12, 3-(5-benzyl-[1,2,4]oxadiazol-3-yl)-1-(4-chloro-benzyl)-6-hydroxy-1H-quinolin-4-one]	< 10 µM
CC(C)Cc1nc(-c2cn(CC3CCCCC3)c3cc(N4CCN(C)CC4)c(F)cc3c2=O)no1 [Compound 13, 1-cyclohexylmethyl-6-fluoro-3-(5-isobutyl-[1,2,4]oxadiazol-3-yl)-7-(4-methyl-piperazin-1-yl)-1H-quinolin-4-one]	> 10 µM
CN1CCN(c2cc3c(cc2F)c(=O)c(-c2noc(CC4CC4)n2)cn3CC2CCCCC2)CC1 [Compound 14, 1-cyclohexylmethyl-3-(5-cyclopropylmethyl-[1,2,4]oxadiazol-3-yl)-6-fluoro-7-(4-methyl-piperazin-1-yl)-1H-quinolin-4-one]	< 10 µM
CN1CCN(c2cc3c(cc2F)c(=O)c(-c2noc(CC4CCCC4)n2)cn3CC2CCCCC2)CC1 [Compound 15, 1-cyclohexylmethyl-3-(5-cyclopentylmethyl-[1,2,4]oxadiazol-3-yl)-6-fluoro-7-(4-methyl-piperazin-1-yl)-1H-quinolin-4-one]	< 10 µM
CN1CCN(c2cc3c(cc2F)c(=O)c(-c2noc(CC4CCCC4)n2)cn3Cc2ccc(C(F)(F)F)cc2F)CC1 [Compound 17, 3-(5-cyclopentylmethyl-[1,2,4]oxadiazol-3-yl)-6-fluoro-1-(2-fluoro-4-trifluoromethyl-benzyl)-7-(4-methyl-piperazin-1-yl)-1H-quinolin-4-one]	< 2 µM
Cc1cccc(Cc2nc(-c3cn(CC4CCCCC4)c4cc(N5CCN(C)CC5)c(F)cc4c3=O)no2)c1 [Compound 19, 1-cyclohexylmethyl-6-fluoro-3-[5-(3-methyl-benzyl)-[1,2,4]oxadiazol-3-yl]-7-(4-methyl-piperazin-1-yl)-1H-quinolin-4-one]	< 10 µM
Cc1ccccc1Cc1nc(-c2cn(CC3CCCCC3)c3cc(N4CCN(C)CC4)c(F)cc3c2=O)no1 [Compound 20, 1-cyclohexylmethyl-6-fluoro-3-[5-(2-methyl-benzyl)-[1,2,4]oxadiazol-3-yl]-7-(4-methyl-piperazin-1-yl)-1H-quinolin-4-one]	< 10 µM
CN1CCN(c2cc3c(cc2F)c(=O)c(-c2noc(CC(C)(C)C)n2)cn3Cc2ccc(Cl)cc2)CC1 [Compound 21, 1-(4-chloro-benzyl)-3-[5-(2,2-dimethyl-propyl)-[1,2,4]oxadiazol-3-yl]-6-fluoro-7-(4-methyl-piperazin-1-yl)-1H-quinolin-4-one]	> 10 µM
CN1CCN(c2cc3c(cc2F)c(=O)c(-c2noc(Cc4ccccc4CC(=O)O)n2)cn3Cc2ccc(Cl)cc2)CC1 [Compound 22, (2-{3-[1-(4-chloro-benzyl)-6-fluoro-7-(4-methyl-piperazin-1-yl)-4-oxo-1,4-dihydro-quinolin-3-yl]-[1,2,4]oxadiazol-5-ylmethyl}-phenyl)-acetic acid]	> 10 µM
CN1CCN(c2cc3c(cc2F)c(=O)c(-c2noc(Cc4ccc(F)cc4)n2)cn3Cc2ccc(C(F)(F)F)cc2F)CC1 [Compound 23, 6-fluoro-3-[5-(4-fluoro-benzyl)-[1,2,4]oxadiazol-3-yl]-1-(2-fluoro-4-trifluoromethyl-benzyl)-7-(4-methyl-piperazin-1-yl)-1H-quinolin-4-one]	< 2 µM
O=c1c(-c2noc(Cc3ccccc3)n2)cn(CC2CCCCC2)c2ccc(O)cc12 [Compound 24, 3-(5-benzyl-[1,2,4]oxadiazol-3-yl)-1-cyclohexylmethyl-6-hydroxy-1H-quinolin-4-one]	> 10 µM

same assay, conditions: either or both HCV replicon assays: Huh7/Clone A, 48 hours, 72 hours, Luc activity or RT-PCR, read-out: inhibit HCV replication at IC50 levels or estimated IC50 levels

Structure (SMILES)	IC50
CN1CCN(c2cc3c(cc2F)c(=O)c(-c2noc(Cc4ccccc4)n2)cn3Cc2ccc(C(F)(F)F)cc2F)CC1 [Compound 16, 3-(5-benzyl-[1,2,4]oxadiazol-3-yl)-6-fluoro-1-(2-fluoro-4-trifluoromethyl-benzyl)-7-(4-methyl-piperazin-1-yl)-1H-quinolin-4-one]	< 0.5 µM
